Experimental data as given in ChEMBL document CHEMBL3763154, “Dispirocyclopropyldehydrocostus lactone selectively inhibits acute myelogenous leukemia cells” (Bioorg Med Chem Lett, 2016).
The source made the active and inactive calls. No cut-off for these calls is given here.

Legend:
[1] = Cytotoxicity against human K562/A02 cells after 72 hrs by MTT assay; assay type: functional, cell-based; conditions: K562/A02, 72 h
[2] = Cytotoxicity against human HL60 cells after 72 hrs by MTT assay; assay type: functional, cell-based; conditions: HL-60, 72 h
[3] = Cytotoxicity against human HL60/ADR cells after 72 hrs by MTT assay; assay type: functional, cell-based
[4] = Cytotoxicity against human KG1a cells after 72 hrs by MTT assay; assay type: functional, cell-based; conditions: KG-1a
HL-60 = test: Selectivity index, ratio IC50 for human […] cells; assay type: functional
[5] = Selectivity index, ratio IC50 for human KG1a cells to IC50 for human HL60 cells; assay type: functional
K562 = test: Cytotoxicity against human K562 cells after 72 hrs by MTT assay; assay type: functional, cell-based; conditions: K562, 72 h
[6] = Cytotoxicity against human hematopoietic stem cells after 24 hrs by MTT assay; assay type: cell-based
[7] = Cytotoxicity against human AML cells assessed as cell viability at 5 uM after 18 hrs by annexin staining based assay; assay type: functional; conditions: read-out: Activity
[8] = Cytotoxicity against human CD34-positive leukemia stem/progenitor AML cells assessed as cell viability at 5 uM after 18 hrs by annexin staining based assay; assay type: functional; conditions: read-out: Activity
[9] = Cytotoxicity against human CD38 deficient CD34-positive leukemia stem/progenitor AML cells assessed as cell viability at 5 uM after 18 hrs by annexin staining based assay; assay type: functional; conditions: read-out: Activity
[10] = Cytotoxicity against human AML cells assessed as cell viability at 10 uM after 18 hrs by annexin staining based assay; assay type: functional; conditions: read-out: Activity
[11] = Cytotoxicity against human CD34-positive leukemia stem/progenitor AML cells assessed as cell viability at 10 uM after 18 hrs by annexin staining based assay; assay type: functional; conditions: read-out: Activity
[12] = Cytotoxicity against human CD38 deficient CD34-positive leukemia stem/progenitor AML cells assessed as cell viability at 10 uM after 18 hrs by annexin staining based assay; assay type: functional; conditions: read-out: Activity
KG-1a [13] = test: Induction of apoptosis in human KG1a cells assessed as viable cells at 5 uM after 24 hrs by Annexin V-FITC/PI staining based flow cytometry (Rvb=95.1%); assay type: functional; conditions: read-out: Activity
KG-1a [14] = test: Induction of apoptosis in human KG1a cells assessed as viable cells at 10 uM after 24 hrs by Annexin V-FITC/PI staining based flow cytometry (Rvb=95.1%); assay type: functional; conditions: read-out: Activity
KG-1a [15] = test: Induction of apoptosis in human KG1a cells assessed as viable cells at 20 uM after 24 hrs by Annexin V-FITC/PI staining based flow cytometry (Rvb=95.1%); assay type: functional; conditions: read-out: Activity
KG-1a [16] = test: Induction of apoptosis in human KG1a cells assessed as viable cells at 50 uM after 24 hrs by Annexin V-FITC/PI staining based flow cytometry (Rvb=95.1%); assay type: functional; conditions: read-out: Activity
KG-1a [17] = test: Induction of apoptosis in human KG1a cells assessed as early apoptotic cells at 5 uM after 24 hrs by Annexin V-FITC/PI staining based flow cytometry (Rvb=2.40%); assay type: functional
KG-1a [18] = test: Induction of apoptosis in human KG1a cells assessed as early apoptotic cells at 10 uM after 24 hrs by Annexin V-FITC/PI staining based flow cytometry (Rvb=2.40%); assay type: functional
KG-1a [19] = test: Induction of apoptosis in human KG1a cells assessed as early apoptotic cells at 20 uM after 24 hrs by Annexin V-FITC/PI staining based flow cytometry (Rvb=2.40%); assay type: functional
KG-1a [20] = test: Induction of apoptosis in human KG1a cells assessed as early apoptotic cells at 50 uM after 24 hrs by Annexin V-FITC/PI staining based flow cytometry (Rvb=2.40%); assay type: functional
KG-1a [21] = test: Induction of apoptosis in human KG1a cells assessed as late apoptotic cells at 5 uM after 24 hrs by Annexin V-FITC/PI staining based flow cytometry (Rvb=2.30%); assay type: functional
KG-1a [22] = test: Induction of apoptosis in human KG1a cells assessed as late apoptotic cells at 10 uM after 24 hrs by Annexin V-FITC/PI staining based flow cytometry (Rvb=2.30%); assay type: functional
KG-1a [23] = test: Induction of apoptosis in human KG1a cells assessed as late apoptotic cells at 20 uM after 24 hrs by Annexin V-FITC/PI staining based flow cytometry (Rvb=2.30%); assay type: functional
KG-1a [24] = test: Induction of apoptosis in human KG1a cells assessed as late apoptotic cells at 50 uM after 24 hrs by Annexin V-FITC/PI staining based flow cytometry (Rvb=2.30%); assay type: functional
KG-1a [25] = test: Induction of apoptosis in human KG1a cells assessed as necrotic cells at 5 uM after 24 hrs by Annexin V-FITC/PI staining based flow cytometry (Rvb=0.227%); assay type: functional
KG-1a [26] = test: Induction of apoptosis in human KG1a cells assessed as necrotic cells at 10 uM after 24 hrs by Annexin V-FITC/PI staining based flow cytometry (Rvb=0.227%); assay type: functional
KG-1a [27] = test: Induction of apoptosis in human KG1a cells assessed as necrotic cells at 20 uM after 24 hrs by Annexin V-FITC/PI staining based flow cytometry (Rvb=0.227%); assay type: functional
KG-1a [28] = test: Induction of apoptosis in human KG1a cells assessed as necrotic cells at 50 uM after 24 hrs by Annexin V-FITC/PI staining based flow cytometry (Rvb=0.227%); assay type: functional
[29] = Induction of apoptosis in human KG1a cells assessed as upregulation of Bax expression at 2.5 to 10 uM after 24 hrs by Western blot analysis; assay type: functional, cell-based; conditions: KG-1a
[30] = Induction of apoptosis in human KG1a cells assessed as upregulation of caspase 3 cleavage at 2.5 to 10 uM after 24 hrs by Western blot analysis; assay type: functional, cell-based; conditions: KG-1a
[31] = Induction of apoptosis in human KG1a cells assessed as upregulation of caspase 9 cleavage at 2.5 to 10 uM after 24 hrs by Western blot analysis; assay type: functional, cell-based; conditions: KG-1a
[32] = Induction of apoptosis in human KG1a cells assessed as upregulation of PARP cleavage at 2.5 to 10 uM after 24 hrs by Western blot analysis; assay type: functional, cell-based; conditions: KG-1a
[33] = Aqueous solubility of compound; assay type: physicochemical; conditions: buffer
KG-1a [34] = test: Antitumor activity against human KG1a cells xenografted in SCID mice assessed as inhibition of tumor growth at 50 mg/kg, po administered every other day for 7 times; assay type: functional, organism-based
KG-1a [35] = test: Antitumor activity against human KG1a cells xenografted in SCID mice assessed as reduction in tumor weight at 50 mg/kg, po administered every other day for 7 times measured after 1 month; assay type: functional, organism-based
Mus musculus = test: Toxicity in SCID mouse xenografted with KG1a cells assessed as effect on body weight at 50 mg/kg, po administered every other day for 7 times; assay type: organism-based; conditions: in vivo

## COc1cccc2c1C(=O)c1c(O)c3c(c(O)c1C2=O)C[C@@](O)(C(=O)CO)C[C@@H]3O[C@H]1C[C@H](N)[C@H](O)[C@H](C)O1.Cl [DOXORUBICIN HYDROCHLORIDE]
[1]
  IC50: 10.6 µM
[2]
  IC50: 0.016 µM
[3]
  IC50: 4.89 µM
[4]
  IC50: 0.82 µM
HL-60
  Ratio IC50: 300
[5]
  Ratio IC50: 50

## C=C1CC[C@H]2C(=C)CC[C@H]3C(=C)C(=O)O[C@@H]3[C@@H]12 [DEHYDROCOSTUSLACTONE]
K562
  IC50: 5.3 µM
[1]
  IC50: 6.6 µM
[2]
  IC50: 3.7 µM
[3]
  IC50: 5.1 µM
[4]
  IC50: 10.5 µM

## C=C1C(=O)O[C@@H]2[C@@H]3[C@@H](CCC34CC4)C3(CC[C@@H]12)CC3
K562
  IC50: 7 µM
[1]
  IC50: 7.7 µM
[2]
  IC50: 5.7 µM
[3]
  IC50: 6.7 µM
[4]
  IC50: 7.6 µM
[6]
  IC50: > 50 µM
[7]
  viability at 5 µM: 50.7%
[8]
  viability at 5 µM: 42.2%
[9]
  viability at 5 µM: 24.2%
[10]
  viability at 10 µM: 6.5%
[11]
  viability at 10 µM: 1.9%
[12]
  viability at 10 µM: 0.46%
KG-1a [13]
  viability at 5 µM: 82.5%
KG-1a [14]
  viability at 10 µM: 66.5%
KG-1a [15]
  viability at 20 µM: 2%
KG-1a [16]
  viability at 50 µM: 1.32%
KG-1a [17]
  Activity: 6.54%
KG-1a [18]
  Activity: 23.3%
KG-1a [19]
  Activity: 49.9%
KG-1a [20]
  Activity: 45%
KG-1a [21]
  Activity: 3.51%
KG-1a [22]
  Activity: 9.13%
KG-1a [23]
  Activity: 44.4%
KG-1a [24]
  Activity: 49%
KG-1a [25]
  Activity: 0.21%
KG-1a [26]
  Activity: 1.05%
KG-1a [27]
  Activity: 3.05%
KG-1a [28]
  Activity: 4.71%
[29]
  Activity: Active
[30]
  Activity: Active
[31]
  Activity: Active
[32]
  Activity: Active
[33]
  solubility: Insoluble

## CN(C)C[C@@H]1C(=O)O[C@H]2[C@H]1CCC1(CC1)[C@@H]1CCC3(CC3)[C@H]21.O=C(O)/C=C/C(=O)O
KG-1a [34]
  TGI: Active
KG-1a [35]
  Activity: Active
Mus musculus
  Activity: Non-toxic
